The values below come from ChEMBL document CHEMBL4177532, “Antibacterial Nerol Cinnamates from the Australian Plant Eremophila longifolia” (J Nat Prod, 2017).

The structures appear in SMILES notation. Values after ≈ are worked out from the molar mass of the structure shown. Some results are limits rather than exact numbers.

One data set has as its system Streptococcus pneumoniae. In words: Antimicrobial activity against multidrug resistant Streptococcus pneumoniae ATCC 700677 by microdilution plate based method. The data set is classed as functional.
Data set [1] concerns Staphylococcus aureus. In words: Antimicrobial activity against vancomycin-resistant Staphylococcus aureus NARSA VRS 1 by microdilution plate based method. The data set is classed as functional. For orientation: In broth dilution the organism is exposed to a series of concentrations in liquid medium.
For the next data set, the system named is Cryptococcus neoformans. In words: Antimicrobial activity against Cryptococcus neoformans ATCC 208821 by microdilution plate based method. The data set is classed as functional.
For data set [2], the system named is Staphylococcus aureus. In words: Antimicrobial activity against glycopeptide intermediate resistant Staphylococcus aureus NARSA NRS 17 by microdilution plate based method. The class given is functional.
Data set [3] deals with Escherichia coli. In words: Antimicrobial activity against Escherichia coli ATCC 25922 by microdilution plate based method. The data set is classed as functional.
Another data set concerns Enterococcus faecium. In words: Antimicrobial activity against vancomycin-resistant and VanA expressing Enterococcus faecium ATCC 51559 by microdilution plate based method. The data set is classed as functional.
A short description of data set [4]: Cytotoxicity against HEK293 cells assessed as reduction in cell viability incubated for 24 hrs by resazurin based assay. The settings on record: human. In general terms: Resazurin is reduced to fluorescent resorufin, in cell work by metabolically active cells.
The test system of the next data set is HepG2. In words: Cytotoxicity against human HepG2 cells assessed as reduction in cell viability incubated for 24 hrs by resazurin based assay. The data set is classed as functional. Conditions: HepG2, 24 h.
The subject of a further data set is Candida albicans. In words: Antimicrobial activity against Candida albicans ATCC 90028 by microdilution plate based method. The class given is functional.
The next data set relates to Acinetobacter baumannii. In words: Antimicrobial activity against Acinetobacter baumannii ATCC 19606 by microdilution plate based method. The settings on record: ATCC 19606 = CIP 70.34 = JCM 6841. The class given is functional.
The nature of data set [5]: Drug metabolism assessed as compound auto-oxidation. The data set is classed as physicochemical.
The subject of data set [6] is Staphylococcus aureus. In words: microbe, parasite or virus in culture. Conditions: ATCC 43300. The class given is functional.
Description: Antimicrobial activity against methicillin-sensitive Staphylococcus aureus ATCC 43300 by microdilution plate based method
The subject of data set [7] is Escherichia coli. In words: Antimicrobial activity against Escherichia coli. The class given is functional.
For data set [8], the system named is Staphylococcus aureus. In words: Antimicrobial activity against Staphylococcus aureus. The data set is classed as functional.
Data set [9] concerns Trypanosoma brucei brucei. In words: Antitrypanosomal activity against Trypanosoma brucei brucei GUTat 3.1 incubated for 72 hrs by alamar blue dye based assay. The settings on record: GUTat 3.1, 72 h. The data set is classed as functional, organism-based.
Another data set has as its system MRC5. In words: Cytotoxicity against human MRC5 cells. The class given is cell-based.

By CC50 is commonly meant the concentration at which the toxic effect on the cells reaches its halfway point. Turning to `COc1cc(/C=C/C(=O)OC/C=C(/C)CCC=C(C)C)ccc1O`, the MIC was 8 to 16 µg/mL (≈ 24.2 to 48.4 µM) with Streptococcus pneumoniae; 16 to 32 µg/mL (≈ 48.4 to 96.8 µM) with Staphylococcus aureus [1]; 32 to 64 µg/mL (≈ 96.8 to 194 µM) in the data set on Cryptococcus neoformans; 16 µg/mL (≈ 48.4 µM) against Staphylococcus aureus [2]; more than 64 µg/mL in the data set with Escherichia coli [3]; 8 µg/mL (≈ 24.2 µM) against Enterococcus faecium. The MIC was more than 64 µg/mL in the data set on Candida albicans, more than 64 µg/mL against Acinetobacter baumannii and 16 µg/mL (≈ 48.4 µM) in the data set on Staphylococcus aureus [6]. In data set [4], the half-maximal cytotoxic concentration (CC50) at 24 h turned out to be 273 µM. Besides, the cytotoxic concentration (CC50) in the data set on HepG2 amounted to 300 µM. The Drug metabolism entry in [5] was “Metabolite_Detected”.

For the molecule `CC(C)=CCC/C(C)=C/COC(=O)/C=C/c1ccccc1`, the MIC in the data set with Escherichia coli [7] and with Staphylococcus aureus [8] was 5000 µg/mL (≈ 17600 µM) each time.

In the case of `CC(C)=CCC/C(C)=C\COC(=O)/C=C/c1ccc(O)cc1`, the MIC against Streptococcus pneumoniae is 64 µg/mL (≈ 213 µM); against Staphylococcus aureus [1], more than 64 µg/mL; in the data set on Cryptococcus neoformans it was 32 to 64 µg/mL (≈ 107 to 213 µM); in the data set with Staphylococcus aureus [2] it was more than 64 µg/mL; with Escherichia coli [3] it was more than 64 µg/mL; in the data set with Enterococcus faecium, 8 µg/mL (≈ 26.6 µM). Further, the MIC against Candida albicans, against Acinetobacter baumannii and against Staphylococcus aureus [6] was more than 64 µg/mL each time. Moreover, in data set [4], the 50% cytotoxic concentration (CC50) at 24 h came out at 273 µM. The half-maximal cytotoxic concentration (CC50) with HepG2 was 157 µM. For the same molecule, the Drug metabolism entry in [5] was “Metabolite_Detected”.

With `CC[C@H](C)CCCCC(=O)N[C@@H](CCN)C(=O)N[C@H](C(=O)N[C@@H](CCN)C(=O)N[C@H]1CCNC(=O)[C@H]([C@@H](C)O)NC(=O)[C@H](CCN)NC(=O)[C@H](CCN)NC(=O)[C@H](CC(C)C)NC(=O)[C@@H](Cc2ccccc2)NC(=O)[C@H](CCN)NC1=O)[C@@H](C)O.O=S(=O)(O)O.O=S(=O)(O)O`, the MIC against Escherichia coli [3] and against Acinetobacter baumannii was 0.3 µg/mL in each case.

With `CCCCCCCCCC(=O)N[C@@H](Cc1c[nH]c2ccccc12)C(=O)N[C@@H](CC(N)=O)C(=O)N[C@@H](CC(=O)O)C(=O)N[C@@H]1C(=O)NCC(=O)N[C@@H](CCCN)C(=O)N[C@@H](CC(=O)O)C(=O)N[C@H](C)C(=O)N[C@@H](CC(=O)O)C(=O)NCC(=O)N[C@H](CO)C(=O)N[C@@H]([C@H](C)CC(=O)O)C(=O)N[C@@H](CC(=O)c2ccccc2N)C(=O)O[C@@H]1C` [DAPTOMYCIN], the MIC against Streptococcus pneumoniae was 8 µg/mL (≈ 4.94 µM); against Staphylococcus aureus [1] it was 8 µg/mL (≈ 4.94 µM); in the data set on Staphylococcus aureus [2] it was 16 to 32 µg/mL (≈ 9.87 to 19.7 µM); with Enterococcus faecium, 32 µg/mL (≈ 19.7 µM); in the data set on Staphylococcus aureus [6] it was 4 µg/mL (≈ 2.47 µM).

As usually defined, the IC50 is the concentration that gives 50% inhibition. High values mean a need for much substance, low ones inhibition by little substance. For the molecule `CC(C)=CCC/C(C)=C\CC/C(C)=C\COC(=O)/C=C/c1ccc(O)c(O)c1` [FARNESYL CAFFEATE], the IC50 in data set [9] is 0.23 µg/mL (≈ 0.598 µM); with MRC5, 13.3 µg/mL (≈ 34.6 µM).

As for `OC(Cn1cncn1)(Cn1cncn1)c1ccc(F)cc1F` [FLUCONAZOLE], the results for the MIC with Cryptococcus neoformans and against Candida albicans were 8 µg/mL (≈ 26.1 µM) and 0.3 to 0.5 µg/mL (≈ 0.98 to 1.63 µM), respectively.

As to `CC/C(=C(\c1ccccc1)c1ccc(OCCN(C)C)cc1)c1ccccc1` [TAMOXIFEN], the half-maximal cytotoxic concentration (CC50) at 24 h in [4] came out at […]. Also, the CC50 with HepG2 is […].

`CN[C@H](CC(C)C)C(=O)N[C@H]1C(=O)N[C@@H](CC(N)=O)C(=O)N[C@H]2C(=O)N[C@H]3C(=O)N[C@H](C(=O)N[C@H](C(=O)O)c4cc(O)cc(O)c4-c4cc3ccc4O)[C@H](O)c3ccc(c(Cl)c3)Oc3cc2cc(c3O[C@@H]2O[C@H](CO)[C@@H](O)[C@H](O)[C@H]2O[C@H]2C[C@](C)(N)[C@H](O)[C@H](C)O2)Oc2ccc(cc2Cl)[C@H]1O.Cl` [VANCOMYCIN HYDROCHLORIDE]: the MIC in the data set with Streptococcus pneumoniae is 2 µg/mL; in the data set with Staphylococcus aureus [1] it was more than 32 µg/mL; with Staphylococcus aureus [2] it was more than 32 µg/mL; in the data set on Enterococcus faecium, more than 32 µg/mL.
